# From patent US20250230193A1, “CYCLIC COMPOUND HAVING SELECTIVE KRAS INHIBITORY EFFECT ON HRAS AND NRAS” (CHUGAI SEIYAKU KABUSHIKI KAISHA, priority 2022, published 2025)
# *1 amine or outer side, *2 acyl side, *3 side chain or, on linkers, in order; H or OH if unused. Where a SMILES comes first, the peptide text is derived from it. Bridges are numbered along the chain shown (N, C = ends). [ ]: non-standard residue; d: D form. The star is where a group is joined. hPhe(3-Cl-4-CF3) = N[C@@H](CCc1ccc(C(F)(F)F)c(Cl)c1)C(=O)O; NPrPhe(4-CF3) = CCCN[C@@H](Cc1ccc(C(F)(F)F)cc1)C(=O)O; Pro(4-spirocPr) = O=C(O)[C@@H]1CC2(CC2)CN1; X38 = C[C@@H]1CN([*:1])[C@@H]1C(=O)[*:2]; Morpholine(3S-CO) = O=C(O)[C@@H]1COCCN1; Pip(4,4-F2) = O=C(O)[C@@H]1CC(F)(F)CCN1; NMeGly(cPent) = CN[C@H](C(=O)O)C1CCCC1; X46 = CC1(C)CN([*:1])[C@@H]1C(=O)[*:2]; Aze(3S-Me) = C[C@H]1CN[C@@H]1C(=O)O; Hyp = O=C(O)[C@@H]1C[C@@H](O)CN1; NMeD = CN[C@@H](CC(=O)O)C(=O)O; NMeL = CN[C@@H](CC(C)C)C(=O)O; X14 = N#CCN(CC(=O)[*:2])[*:1]; Pip = O=C(O)[C@@H]1CCCCN1; Morpholide = C1CN(*)CCO1; Ac5c = NC1(C(=O)O)CCCC1; Aze = O=C(O)[C@@H]1CCN1; NcPrGly = O=C(O)CNC1CC1; NPrGly = CCCNCC(=O)O; NEtG = CCNCC(=O)O; Sar = CNCC(=O)O
# Columns and labels:
# [1] = target: GDP-bound HRAS wild-type protein (Homo sapiens, UniProt P01112); experiment: Binding to HRAS by surface plasmon resonance (SPR), Single Cycle Kinetics; conditions: KD ratio HRAS/KRAS, SPR
# [2] = target: GDP-bound NRAS wild-type protein (Homo sapiens, UniProt P01111); experiment: Binding to NRAS by surface plasmon resonance (SPR), Single Cycle Kinetics; conditions: KD ratio NRAS/KRAS, SPR
# Sequence of GDP-bound NRAS wild-type protein (P01111 whole entry): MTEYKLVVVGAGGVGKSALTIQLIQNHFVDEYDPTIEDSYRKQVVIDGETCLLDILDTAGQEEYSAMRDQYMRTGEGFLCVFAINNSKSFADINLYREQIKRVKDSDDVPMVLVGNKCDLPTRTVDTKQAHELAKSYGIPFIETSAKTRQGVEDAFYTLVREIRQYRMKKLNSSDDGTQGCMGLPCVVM
# Sequence of GDP-bound HRAS wild-type protein (P01112 whole entry): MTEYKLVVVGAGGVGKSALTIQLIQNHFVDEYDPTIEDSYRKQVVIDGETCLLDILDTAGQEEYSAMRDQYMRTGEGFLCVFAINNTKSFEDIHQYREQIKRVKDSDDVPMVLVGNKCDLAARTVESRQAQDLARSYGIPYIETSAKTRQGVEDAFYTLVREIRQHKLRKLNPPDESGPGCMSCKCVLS
Structure (SMILES),HRAS/KRAS (ratio of KD for GDP-bound HRAS wild-type to KD for KRAS) [1],NRAS/KRAS (ratio of KD for GDP-bound NRAS wild-type to KD for KRAS) [2]
CCCN1C(=O)CN(C)C(=O)CN(C2CC2)C(=O)[C@H]([C@@H](C)CC)NC(=O)[C@H](CC(C)C)N(C)C(=O)C[C@@H](C(=O)N2CCOCC2)N(C)C(=O)[C@H](C2CCCC2)N(C)C(=O)C2(CCCC2)NC(=O)[C@@H]2CCCN2C(=O)[C@H](CCc2ccc(C(F)(F)F)c(Cl)c2)NC(=O)CN(C)C(=O)[C@@H]1Cc1ccc(C(F)(F)F)cc1 [PP0252] ([NMeL]I[NcPrGly][Sar][NPrPhe(4-CF3)][Sar][hPhe(3-Cl-4-CF3)]P[Ac5c][NMeGly(cPent)][NMeD]-Morpholide; lactam N-11),B (a compound having 3 or more and less than 10 is denoted as B),B (a compound having 3 or more and less than 10 is denoted as B)
CCCN1CC(=O)N(C)CC(=O)N(CCC)[C@@H](Cc2ccc(C(F)(F)F)cc2)C(=O)N(C)CC(=O)N[C@@H](CCc2ccc(C(F)(F)F)c(Cl)c2)C(=O)N2CCC[C@H]2C(=O)NC2(CCCC2)C(=O)N(C)[C@@H](C2CCCC2)C(=O)N(C)[C@H](C(=O)N2CCOCC2)CC(=O)N(C)[C@@H](CC(C)C)C(=O)N[C@@H]([C@@H](C)CC)C1=O [PP0253] ([NMeL]I[NPrGly][Sar][NPrPhe(4-CF3)][Sar][hPhe(3-Cl-4-CF3)]P[Ac5c][NMeGly(cPent)][NMeD]-Morpholide; lactam N-11),B (a compound having 3 or more and less than 10 is denoted as B),B (a compound having 3 or more and less than 10 is denoted as B)
CCCN1C(=O)CN(C)C(=O)CN(CC#N)C(=O)[C@H]([C@@H](C)CC)NC(=O)[C@H](CC(C)C)N(C)C(=O)C[C@@H](C(=O)N2CCOCC2)N(C)C(=O)[C@H](C2CCCC2)N(C)C(=O)C2(CCCC2)NC(=O)[C@@H]2CCCN2C(=O)[C@H](CCc2ccc(C(F)(F)F)c(Cl)c2)NC(=O)CN(C)C(=O)[C@@H]1Cc1ccc(C(F)(F)F)cc1 [PP0254] ([NMeL]I[X14][Sar][NPrPhe(4-CF3)][Sar][hPhe(3-Cl-4-CF3)]P[Ac5c][NMeGly(cPent)][NMeD]-Morpholide; lactam N-11),C (A compound having a KD ratio of 0.1 or more and less than 3 is denoted as C),B (a compound having 3 or more and less than 10 is denoted as B)
CCCN1C(=O)CN(C)C(=O)[C@H]2N(CC2(C)C)C(=O)[C@H]([C@@H](C)CC)NC(=O)[C@H](CC(C)C)N(C)C(=O)C[C@@H](C(=O)N2CCOCC2)N(C)C(=O)[C@H](C2CCCC2)N(C)C(=O)C2(CCCC2)NC(=O)[C@@H]2CCCN2C(=O)[C@H](CCc2ccc(C(F)(F)F)c(Cl)c2)NC(=O)CN(C)C(=O)[C@@H]1Cc1ccc(C(F)(F)F)cc1 [PP0256] ([NMeL]I[X46][Sar][NPrPhe(4-CF3)][Sar][hPhe(3-Cl-4-CF3)]P[Ac5c][NMeGly(cPent)][NMeD]-Morpholide; lactam N-11),C (A compound having a KD ratio of 0.1 or more and less than 3 is denoted as C),B (a compound having 3 or more and less than 10 is denoted as B)
CCCN1C(=O)CN(C)C(=O)[C@@H]2[C@H](C)CN2C(=O)[C@H]([C@@H](C)CC)NC(=O)[C@H](CC(C)C)N(C)C(=O)C[C@@H](C(=O)N2CCOCC2)N(C)C(=O)[C@H](C2CCCC2)N(C)C(=O)C2(CCCC2)NC(=O)[C@@H]2CCCN2C(=O)[C@H](CCc2ccc(C(F)(F)F)c(Cl)c2)NC(=O)CN(C)C(=O)[C@@H]1Cc1ccc(C(F)(F)F)cc1 [PP0257] ([NMeL]I[X38][Sar][NPrPhe(4-CF3)][Sar][hPhe(3-Cl-4-CF3)]P[Ac5c][NMeGly(cPent)][NMeD]-Morpholide; lactam N-11),B (a compound having 3 or more and less than 10 is denoted as B),B (a compound having 3 or more and less than 10 is denoted as B)
CCCN1C(=O)CN(C)C(=O)[C@@H]2[C@@H](C)CN2C(=O)[C@H]([C@@H](C)CC)NC(=O)[C@H](CC(C)C)N(C)C(=O)C[C@@H](C(=O)N2CCOCC2)N(C)C(=O)[C@H](C2CCCC2)N(C)C(=O)C2(CCCC2)NC(=O)[C@@H]2CCCN2C(=O)[C@H](CCc2ccc(C(F)(F)F)c(Cl)c2)NC(=O)CN(C)C(=O)[C@@H]1Cc1ccc(C(F)(F)F)cc1 [PP0258] ([NMeL]I[Aze(3S-Me)][Sar][NPrPhe(4-CF3)][Sar][hPhe(3-Cl-4-CF3)]P[Ac5c][NMeGly(cPent)][NMeD]-Morpholide; lactam N-11),C (A compound having a KD ratio of 0.1 or more and less than 3 is denoted as C),B (a compound having 3 or more and less than 10 is denoted as B)
CCCN1C(=O)[C@@H]2CCN2C(=O)CN(CC)C(=O)[C@H]([C@@H](C)CC)NC(=O)[C@H](CC(C)C)N(C)C(=O)C[C@@H](C(=O)N2CCOCC2)N(C)C(=O)[C@H](C2CCCC2)N(C)C(=O)C2(CCCC2)NC(=O)[C@@H]2CCCN2C(=O)[C@H](CCc2ccc(C(F)(F)F)c(Cl)c2)NC(=O)CN(C)C(=O)[C@@H]1Cc1ccc(C(F)(F)F)cc1 [PP0259] ([NMeL]I[NEtG][Aze][NPrPhe(4-CF3)][Sar][hPhe(3-Cl-4-CF3)]P[Ac5c][NMeGly(cPent)][NMeD]-Morpholide; lactam N-11),B (a compound having 3 or more and less than 10 is denoted as B),C (A compound having a KD ratio of 0.1 or more and less than 3 is denoted as C)
CCCN1C(=O)CN(C)C(=O)CN(C)C(=O)[C@H]([C@@H](C)CC)NC(=O)[C@H](CC(C)C)N(C)C(=O)C[C@@H](C(=O)N2CCOCC2)N(C)C(=O)[C@H](C2CCCC2)N(C)C(=O)C2(CCCC2)NC(=O)[C@@H]2CCN2C(=O)[C@H](CCc2ccc(C(F)(F)F)c(Cl)c2)NC(=O)CN(C)C(=O)[C@@H]1Cc1ccc(C(F)(F)F)cc1 [PP0260] ([NMeL]I[Sar][Sar][NPrPhe(4-CF3)][Sar][hPhe(3-Cl-4-CF3)][Aze][Ac5c][NMeGly(cPent)][NMeD]-Morpholide; lactam N-11),C (A compound having a KD ratio of 0.1 or more and less than 3 is denoted as C),B (a compound having 3 or more and less than 10 is denoted as B)
CCCN1C(=O)CN(C)C(=O)CN(C)C(=O)[C@H]([C@@H](C)CC)NC(=O)[C@H](CC(C)C)N(C)C(=O)C[C@@H](C(=O)N2CCOCC2)N(C)C(=O)[C@H](C2CCCC2)N(C)C(=O)C2(CCCC2)NC(=O)[C@@H]2CC3(CC3)CN2C(=O)[C@H](CCc2ccc(C(F)(F)F)c(Cl)c2)NC(=O)CN(C)C(=O)[C@@H]1Cc1ccc(C(F)(F)F)cc1 [PP0261] ([NMeL]I[Sar][Sar][NPrPhe(4-CF3)][Sar][hPhe(3-Cl-4-CF3)][Pro(4-spirocPr)][Ac5c][NMeGly(cPent)][NMeD]-Morpholide; lactam N-11),C (A compound having a KD ratio of 0.1 or more and less than 3 is denoted as C),B (a compound having 3 or more and less than 10 is denoted as B)
CCCN1C(=O)CN(C)C(=O)CN(C)C(=O)[C@H]([C@@H](C)CC)NC(=O)[C@H](CC(C)C)N(C)C(=O)C[C@@H](C(=O)N2CCOCC2)N(C)C(=O)[C@H](C2CCCC2)N(C)C(=O)C2(CCCC2)NC(=O)[C@@H]2C[C@@H](OC)CN2C(=O)[C@H](CCc2ccc(C(F)(F)F)c(Cl)c2)NC(=O)CN(C)C(=O)[C@@H]1Cc1ccc(C(F)(F)F)cc1 [PP0262] ([NMeL]I[Sar][Sar][NPrPhe(4-CF3)][Sar][hPhe(3-Cl-4-CF3)][Hyp](Me)[Ac5c][NMeGly(cPent)][NMeD]-Morpholide; lactam N-11),B (a compound having 3 or more and less than 10 is denoted as B),B (a compound having 3 or more and less than 10 is denoted as B)
CCCN1C(=O)CN(C)C(=O)CN(C)C(=O)[C@H]([C@@H](C)CC)NC(=O)[C@H](CC(C)C)N(C)C(=O)C[C@@H](C(=O)N2CCOCC2)N(C)C(=O)[C@H](C2CCCC2)N(C)C(=O)C2(CCCC2)NC(=O)[C@@H]2CCCCN2C(=O)[C@H](CCc2ccc(C(F)(F)F)c(Cl)c2)NC(=O)CN(C)C(=O)[C@@H]1Cc1ccc(C(F)(F)F)cc1 [PP0263] ([NMeL]I[Sar][Sar][NPrPhe(4-CF3)][Sar][hPhe(3-Cl-4-CF3)][Pip][Ac5c][NMeGly(cPent)][NMeD]-Morpholide; lactam N-11),C (A compound having a KD ratio of 0.1 or more and less than 3 is denoted as C),B (a compound having 3 or more and less than 10 is denoted as B)
"CCCN1C(=O)CN(C)C(=O)CN(C)C(=O)[C@H]([C@@H](C)CC)NC(=O)[C@H](CC(C)C)N(C)C(=O)C[C@@H](C(=O)N2CCOCC2)N(C)C(=O)[C@H](C2CCCC2)N(C)C(=O)C2(CCCC2)NC(=O)[C@@H]2CC(F)(F)CCN2C(=O)[C@H](CCc2ccc(C(F)(F)F)c(Cl)c2)NC(=O)CN(C)C(=O)[C@@H]1Cc1ccc(C(F)(F)F)cc1 [PP0264] ([NMeL]I[Sar][Sar][NPrPhe(4-CF3)][Sar][hPhe(3-Cl-4-CF3)][Pip(4,4-F2)][Ac5c][NMeGly(cPent)][NMeD]-Morpholide; lactam N-11)",C (A compound having a KD ratio of 0.1 or more and less than 3 is denoted as C),B (a compound having 3 or more and less than 10 is denoted as B)
CCCN1C(=O)CN(C)C(=O)CN(C)C(=O)[C@H]([C@@H](C)CC)NC(=O)[C@H](CC(C)C)N(C)C(=O)C[C@@H](C(=O)N2CCOCC2)N(C)C(=O)[C@H](C2CCCC2)N(C)C(=O)C2(CCCC2)NC(=O)[C@@H]2COCCN2C(=O)[C@H](CCc2ccc(C(F)(F)F)c(Cl)c2)NC(=O)CN(C)C(=O)[C@@H]1Cc1ccc(C(F)(F)F)cc1 [PP0265] ([NMeL]I[Sar][Sar][NPrPhe(4-CF3)][Sar][hPhe(3-Cl-4-CF3)][Morpholine(3S-CO)][Ac5c][NMeGly(cPent)][NMeD]-Morpholide; lactam N-11),C (A compound having a KD ratio of 0.1 or more and less than 3 is denoted as C),B (a compound having 3 or more and less than 10 is denoted as B)
